Reference: ChEMBL document CHEMBL3244052, “Conformational analogues of dopamine. Synthesis and pharmacological activity of (E)- and (Z)-2-(3,4-dihydroxyphenyl)cyclopropylamine hydrochlorides” (J Med Chem, 1979)
The source made the active and inactive calls. The rule behind the calls is not given here.

Assays:
Canis familiaris [1] = experiment: Cardiac stimulant activity in iv dosed dog assessed as increase in heart rate; type: functional, Canis lupus familiaris
Canis familiaris [2] = experiment: Dopaminergic activity in mongrel dog assessed as renal vasodilation up to 4.96 x 10^-6 M administered to renal artery; type: functional, organism-based; conditions: Canis lupus familiaris
[3] = Agonist activity at alpha-adrenergic receptor in rabbit thoracic aorta assessed as […] contraction; type: tissue-based, Oryctolagus cuniculus
Canis familiaris [4] = experiment: Cardiac stimulant activity in iv dosed dog assessed as dose producing 50% increase in contractile force; type: functional, Canis lupus familiaris

SMILES | Activity (Canis familiaris [1]) [bpm] | ED50 (Canis familiaris [2]) | EC50 [3] [×10⁻⁷ mol] | Activity (Canis familiaris [4]) [×10⁻⁸ mol/kg]
Cl.N[C@@H]1C[C@H]1c1ccc(O)c(O)c1 (racemic) | -2 | inactive | 94 | 19.5
Cl.N[C@@H]1C[C@@H]1c1ccc(O)c(O)c1 (racemic) | 32 | inactive | 457 | 312.3
Cl.NCCc1ccc(O)c(O)c1 [DOPAMINE HYDROCHLORIDE] | 5 |  | 102 | 4.8
CC(C)NCC(O)c1ccc(O)c(O)c1.Cl (centres undefined) [ISOPROTERENOL HYDROCHLORIDE] | 16 |  |  | 0.014
CNC[C@H](O)c1cccc(O)c1.Cl [PHENYLEPHRINE HYDROCHLORIDE] |  |  | 2.3 | 
